From US12655113B2, “Biphenyl compounds as SOCE modulators, compositions and uses thereof” (Università degli Studi del Piemonte Orientale “Amedeo …, priority 2020, dated 2026)

Experiments:
ICRAC = ICRAC (Homo sapiens, UniProt Q96D31); settings: read-out: IC50 (ICRAC inhibition); cited from earlier work
[1] = system: T cell cytokine production; settings: T cells; cited from earlier work
[2] = system: tBHQ-induced calcium influx into Hek cells (SOCE); assay: Store-operated calcium entry (SOCE) by Fura-2 Ca2+ measurements in Hek cells; format: cell-based, Human; settings: for Calcium response to SOCE-modulators (regulation of SOCE): FIG. 2A, HEK cells, stores depleted with 50 μM tBHQ, compound added with 2 mM Ca2+
[3] = system: vascular smooth muscle cells; settings: cited from earlier work
STIM1 clustering = settings: vascular smooth muscle cells; cited from earlier work
[4] = system: metabotropic glutamate, muscarinic acetylcholine and GABA B receptors, GABA A, AMPA and NMDA receptors, tetrodotoxin-sensitive Na+ channels, N- and P/Q-type …; settings: cited from earlier work
[5] = target: T1, overexpressed TRPC5 channels (Homo sapiens, UniProt Q9UL62); settings: cited from earlier work
T1 sequence (Q9UL62 1-973): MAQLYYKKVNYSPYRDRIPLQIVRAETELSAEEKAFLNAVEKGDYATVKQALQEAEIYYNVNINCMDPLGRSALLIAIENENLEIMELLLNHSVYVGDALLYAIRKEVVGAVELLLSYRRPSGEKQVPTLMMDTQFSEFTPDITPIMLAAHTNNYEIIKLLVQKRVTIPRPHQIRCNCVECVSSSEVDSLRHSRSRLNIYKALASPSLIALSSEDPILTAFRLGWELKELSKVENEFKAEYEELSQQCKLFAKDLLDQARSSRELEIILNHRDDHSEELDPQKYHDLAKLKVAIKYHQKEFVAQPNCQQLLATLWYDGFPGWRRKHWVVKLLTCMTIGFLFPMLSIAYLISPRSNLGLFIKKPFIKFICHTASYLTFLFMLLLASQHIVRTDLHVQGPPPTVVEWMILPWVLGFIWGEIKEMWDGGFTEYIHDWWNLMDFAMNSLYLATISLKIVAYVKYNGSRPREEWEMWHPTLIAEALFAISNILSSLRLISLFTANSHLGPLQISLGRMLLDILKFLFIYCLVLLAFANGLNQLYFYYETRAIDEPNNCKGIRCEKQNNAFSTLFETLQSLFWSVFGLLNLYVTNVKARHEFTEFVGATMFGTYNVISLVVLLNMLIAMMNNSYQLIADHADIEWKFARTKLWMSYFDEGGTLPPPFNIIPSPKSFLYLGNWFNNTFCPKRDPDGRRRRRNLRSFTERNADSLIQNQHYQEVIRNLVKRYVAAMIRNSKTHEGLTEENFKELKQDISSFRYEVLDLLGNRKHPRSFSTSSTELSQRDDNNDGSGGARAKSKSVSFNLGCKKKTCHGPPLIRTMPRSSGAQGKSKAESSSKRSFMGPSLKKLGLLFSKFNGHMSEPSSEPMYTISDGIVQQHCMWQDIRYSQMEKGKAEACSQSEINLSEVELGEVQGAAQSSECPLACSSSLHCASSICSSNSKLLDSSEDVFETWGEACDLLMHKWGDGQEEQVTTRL

endogenous TRPC1/5 = endogenous TRPC1/5 (Homo sapiens, UniProt P48995+Q9UL62); settings: cited from earlier work
endogenous TRPC1/5, sequence (P48995 whole entry, one chain of several): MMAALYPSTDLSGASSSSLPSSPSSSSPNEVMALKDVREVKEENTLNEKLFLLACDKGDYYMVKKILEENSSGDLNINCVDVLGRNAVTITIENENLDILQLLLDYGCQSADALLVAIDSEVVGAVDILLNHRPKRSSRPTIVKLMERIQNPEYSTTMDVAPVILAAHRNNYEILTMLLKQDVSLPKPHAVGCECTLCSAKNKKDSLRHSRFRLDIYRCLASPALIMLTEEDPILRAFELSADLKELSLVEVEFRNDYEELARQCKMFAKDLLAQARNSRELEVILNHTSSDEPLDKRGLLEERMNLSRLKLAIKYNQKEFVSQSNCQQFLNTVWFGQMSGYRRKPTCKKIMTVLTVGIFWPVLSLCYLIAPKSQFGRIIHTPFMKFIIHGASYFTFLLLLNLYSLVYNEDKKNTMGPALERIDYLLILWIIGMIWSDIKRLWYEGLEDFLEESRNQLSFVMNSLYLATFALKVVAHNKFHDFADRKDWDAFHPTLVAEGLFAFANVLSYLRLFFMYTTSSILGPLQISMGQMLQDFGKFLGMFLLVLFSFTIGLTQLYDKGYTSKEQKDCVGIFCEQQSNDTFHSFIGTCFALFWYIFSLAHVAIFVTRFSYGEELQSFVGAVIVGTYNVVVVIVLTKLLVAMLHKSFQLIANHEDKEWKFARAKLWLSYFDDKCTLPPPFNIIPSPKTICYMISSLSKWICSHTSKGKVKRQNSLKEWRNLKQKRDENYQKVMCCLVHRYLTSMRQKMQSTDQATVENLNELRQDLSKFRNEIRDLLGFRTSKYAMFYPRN

[6] = Cytotoxicity, residual cell viability after 24 hours; format: cell-based; settings: 10 μM
[7] = system: SOCE in myotubes from KI-STIM1I115F mice (STIM1 mutated protein); assay: Pharmacological modulation of SOCE in myotubes from KI-STIM1 I115F mice; format: cell-based, mouse; settings: FIG. 4
Experimental: Wild-type and KI-STIM1^I115F primary myoblast were obtained from the following muscles: gastrocnemius, tibialis anterior, quadriceps femoris, extensor digitorum longus, soleus, biceps brachii and diaphragm. Each muscle was placed in a 60 mm dish in phosphate-buffered saline (PBS), removed from the tendon and separated longitudinally and subsequently chopped into smaller pieces. The small fragments were incubated with Pronase® (Protease, Streptomyces griseus, Calbiochem®, 25 KU) for 1 hour at 37° C. in shaking and neutralized with Dulbecco's Modified Eagle's Medium (DMEM, Sigma-Aldrich, Italy), supplemented with 10% heat-inactivated FCS (Gibco, Italy), L-glutamine 50 mg/mL (Sigma-Aldrich, Italy), penicillin 10 U/mL and streptomycin […] (Sigma-Aldrich, Italy), and 1% chicken embryo extract (Sigma-Aldrich, Italy). Tissues were then chopped into smaller pieces passing through pipets of 10 and 5 mL and the supernatant obtained was filtered in 40 μm strainer and centrifuge at RT for 10 minutes at 1200 rpm. […]
Myotubes were generated from 4 animals in each condition. We also analysed whether SOCE in WT myotubes was modified during the lifespan of these animals. […]

[8] = system: SOCE in myotubes from mdx mice; assay: Pharmacological modulation of SOCE in myotubes of DMD mouse model (mdx); format: cell-based; settings: FIG. 6; for over-activation of SOCE in DMD mouse model (DMD mutated protein): myotubes from mdx mice
Experimental: Myotubes were generated from 4 animals in each condition. We analysed whether SOCE is increased in myotubes from mxd mice as compared to myotubes from WT mice. To do this, we employed a classical protocol for Ca^2+-entry, in which stores are depleted with tBHQ in a Ca^2+-free buffer and after 10 minutes cells are perfused in a Ca^2+-containing solution (2 mM).
Myotubes from 4 wild type (WT) and 4 mdx mice were loaded with 5 μM Fura-2 AM and placed in an extracellular solution containing 0 mM Ca^2+. Stores were depleted with 50 μM tBHQ and after 10 minutes cells are perfused in a Ca^2+-containing solution (2 mM) in presence or absence of the selected compound (3-(1-(3-methoxy-[1,1-biphenyl]-4-yl)-1H-1,2,3-triazol-4-yl)benzoic acid).

ICRAC, sequence (Q96D31 whole entry): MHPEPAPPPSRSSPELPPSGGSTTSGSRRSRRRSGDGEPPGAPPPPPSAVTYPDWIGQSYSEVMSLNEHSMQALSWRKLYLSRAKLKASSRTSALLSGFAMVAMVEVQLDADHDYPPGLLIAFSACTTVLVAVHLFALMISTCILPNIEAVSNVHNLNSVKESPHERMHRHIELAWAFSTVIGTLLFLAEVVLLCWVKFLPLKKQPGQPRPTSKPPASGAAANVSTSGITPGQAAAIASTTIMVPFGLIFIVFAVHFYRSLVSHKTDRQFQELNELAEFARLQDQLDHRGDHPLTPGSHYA

COc1ccc(OC)c(-c2ccc(NC(=O)c3ccncc3F)cc2)c1 [Synta66, 3-fluoropyridine-4-carboxylic acid (2′,5′-dimethoxybiphenyl-4-yl)amide]
IC50 (ICRAC): ~1 µM | production of IFN-gamma, IL-2 and IL-17 [1]: inhibits the production | production of IL-8 [1]: but not of IL-8 | IC50 in inhibiting SOCE activity [2]: in the nanomolar range | IC50 [3]: ~0.03 µM | interference with STIM1 clustering (STIM1 clustering): does not interfere with STIM1 clustering | effect on receptors and ion channels (mGlu, muscarinic, GABA B, GABA A, AMPA, NMDA, TTX-sensitive Na+, N- and P/Q-type Ca2+ channels) [4]: does not affect | inhibition of overexpressed TRPC5 channels [5]: does not inhibit | inhibition of endogenous TRPC1/5 (endogenous TRPC1/5): does not inhibit | residual cell viability [6]: 76%

O=C(O)c1cccc(-c2cn(-c3ccc(-c4ccc5c(c4)OCCO5)cc3)nn2)c1 [Compound 18, 3-(1-(4-(2,3-dihydrobenzo[b][1,4]dioxin-6-yl)phenyl)-1H-1,2,3-triazol-4-yl)benzoic acid]
over-activation of STIM1 mutated protein [7]: able to revert the over-activation of STIM1 mutated proteins | Calcium response to SOCE-modulators (regulation of SOCE) [2]: negatively regulate SOCE | inhibition at 10 µM ([2]; Homo sapiens, HEK293, Hek cells, 10 μM): 82.7 ± 4% | over-activation of SOCE in DMD mouse model (DMD mutated protein) [8]: able to revert the over-activation of SOCE in DMD mouse model

COc1cccc(-c2ccc(-n3cc(-c4cccc(C(=O)O)c4)nn3)cc2)c1 [Compound 13, 3-(1-(3′-Methoxy-[1,1′-biphenyl]-4-yl)-1H-1,2,3-triazol-4-yl)benzoic acid]
over-activation of STIM1 mutated protein [7]: able to revert the over-activation of STIM1 mutated protein | Calcium response to SOCE-modulators (regulation of SOCE) [2]: negatively regulate SOCE | inhibition at 3 µM ([2]; Homo sapiens, HEK293, Hek cells, 3 μM): 85 ± 9% | SOCE in myotubes from mdx mice ([8]; 10 μM): impairs SOCE | over-activation of SOCE in DMD mouse model (DMD mutated protein) [8]: able to revert the over-activation of DMD mutated protein
